Assay results as given in patent US11351178B2, “Selective HDAC6 inhibitors” (ITALFARMACO S.P.A., priority 2017, dated 2022).

What was measured:
[1] = Stability in rat plasma; format: in vitro ADME; details: after 4 hours, 37° C.
Summary of the method: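 Compounds incubated at 37° C in rat or human plasma at 50 μM (UV/HPLC) or 1 or 2 μM (LC-MS/MS) for 0–4 h. Reaction stopped with acidified acetonitrile on ice; percent remaining versus initial amount and plasma half-life calculated.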

[2] = test system: B 697 promyelocytic cell line; test: Cytotoxicity on 697 cell line (CellTiter 96); format: cell-based; details: 72 hours incubation, read-out: 697 TOXICITY
Summary of the method: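 Mitochondrial-function readout (CellTiter 96 Aqueous One) after 72 h compound exposure, begun 24 h post-seeding. Dose ranges: 697 cells, 1 to 10000 nM at 2×10^4 cells/well; PBMCs, 1.5 to 10000 nM at 5×10^5 cells/well.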

[3] = Stability to Phase I metabolism in rat S9 liver fraction; format: in vitro ADME; details: after 90 min, 37° C.
Summary of the method: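 Phase I stability in human and rat hepatic S9 at 37 °C, sampled up to 90 min. Samples were stopped with acidified acetonitrile on ice, then quantified by HPLC-UV or LC-MS/MS.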

[4] = test system: peripheral blood mononuclear cells (PBMCs); test: Cytotoxicity on PBMCs (CellTiter 96); format: cell-based; details: PBMC, 72 h; read-out: PBMC TOXICITY (72 h)
Protocol: Cytotoxic activity was evaluated on B 697 […] cell line for all synthesized compounds and on peripheral blood mononuclear cells (PBMCs) for compounds showing a good potency/selectivity profile.
Cells were seeded in plate (2×10^4 cells per well for 697, 5×10^5 cells per well for PBMCs). The test compounds (concentrations from 1.5 nM to 10000 nM for PBMCs and from 1 nM to 10000 nM for 697) were added after 24 hours and incubated 72 hours. The molecules cytotoxic activity was evaluated using CellTiter 96© Aqueous One Solution Cell Proliferation Assay (Promega), which measures the mitochondria function, following the manufacturer's instructions.

[5] = molecular target: T1, recombinant human HDAC6 (Homo sapiens, UniProt Q9UBN7); test: Enzymatic screening on recombinant human HDAC6; format: biochemical; details: Table 2; read-out: HDAC6 IC50
T1 sequence (Q9UBN7 1-1215): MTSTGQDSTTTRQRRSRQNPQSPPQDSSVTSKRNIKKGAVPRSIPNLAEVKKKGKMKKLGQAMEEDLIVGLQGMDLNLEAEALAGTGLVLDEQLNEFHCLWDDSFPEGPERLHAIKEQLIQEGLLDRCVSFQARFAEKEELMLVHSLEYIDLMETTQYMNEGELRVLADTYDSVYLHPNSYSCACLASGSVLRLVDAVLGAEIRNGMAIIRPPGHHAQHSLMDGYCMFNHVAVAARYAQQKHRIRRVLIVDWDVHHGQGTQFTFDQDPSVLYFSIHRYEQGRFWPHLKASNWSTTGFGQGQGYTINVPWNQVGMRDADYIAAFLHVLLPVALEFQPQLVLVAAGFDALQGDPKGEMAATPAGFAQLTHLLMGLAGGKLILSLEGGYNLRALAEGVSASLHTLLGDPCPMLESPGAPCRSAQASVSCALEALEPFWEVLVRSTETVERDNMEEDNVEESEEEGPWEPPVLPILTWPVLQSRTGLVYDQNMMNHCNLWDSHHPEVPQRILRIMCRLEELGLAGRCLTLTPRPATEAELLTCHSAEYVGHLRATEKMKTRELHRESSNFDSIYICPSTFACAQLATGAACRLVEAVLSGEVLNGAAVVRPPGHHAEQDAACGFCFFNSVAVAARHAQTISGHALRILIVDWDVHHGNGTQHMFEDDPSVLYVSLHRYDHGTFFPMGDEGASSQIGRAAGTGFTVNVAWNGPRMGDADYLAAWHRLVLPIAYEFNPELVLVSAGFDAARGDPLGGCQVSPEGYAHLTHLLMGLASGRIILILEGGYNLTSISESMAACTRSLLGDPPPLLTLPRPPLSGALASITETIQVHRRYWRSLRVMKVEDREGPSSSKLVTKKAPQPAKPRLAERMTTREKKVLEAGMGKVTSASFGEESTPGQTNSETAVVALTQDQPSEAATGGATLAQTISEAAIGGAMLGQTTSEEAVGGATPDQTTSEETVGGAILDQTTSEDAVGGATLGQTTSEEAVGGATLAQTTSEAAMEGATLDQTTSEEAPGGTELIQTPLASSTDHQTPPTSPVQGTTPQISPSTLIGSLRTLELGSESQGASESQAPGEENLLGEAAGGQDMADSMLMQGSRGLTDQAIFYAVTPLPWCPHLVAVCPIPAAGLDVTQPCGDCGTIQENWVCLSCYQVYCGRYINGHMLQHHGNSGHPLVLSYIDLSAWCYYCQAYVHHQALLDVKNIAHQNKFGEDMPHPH
Summary of the method: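 Step one: pre-incubate recombinant human HDAC with test compound at 30 °C, with duration set per isoform. Step two: add fluorogenic-type acetyl-lysine substrate (FLUOR DE LYS, its Green variant, or trifluoroacetyl-L-lysine), 2× concentrated in Tris-HCl pH 8 buffer with NaCl, Tween-20 and glycerol. Step three: react at 30 °C.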

[6] = Stability to Phase I metabolism in human S9 liver fraction; format: in vitro ADME; details: human, 90 min, pH 7.4
Protocol: Test compounds were incubated in rat and human liver S9 fraction at 37° C. up to 90 minutes in order to evaluate their stability to Phase I metabolism by hepatic enzymes. […] The reaction was stopped placing samples on ice bath and adding acidified acetonitrile. After centrifugation (10 minutes at 14000 rpm) an aliquot of the supernatant was diluted water, filtered with 0.45 μm regenerated cellulose syringe filters and injected in HPLC-UV or in LC-MS/MS. The percentages of the amount remaining at the various incubation times with respect to the initial amount were calculated. The intrinsic clearance was also calculated.

[7] = Stability in human plasma; format: in vitro ADME; details: after 4 hours, 37° C.
Protocol: In order to evaluate the stability to circulating enzymes, test compounds were incubated in human and rat plasma at 37° C. in a thermostated oscillating bath. Each test compound was incubated at μM (50 μM when the samples were analysed by UV/HPLC, 1 or 2 μM when the samples were analysed by LC-MS/MS) concentration for 0, 15, 30 min and 1, 2 and 4 hours. The reaction was stopped placing tubes on ice bath and adding acidified acetonitrile. After centrifugation for 10 minutes at 14000 rpm, an aliquot of the supernatant was diluted with water, filtered with 0.45 μm syringe filters and injected in HPLC-UV or in LC-MS/MS. The percentages of amount remaining at the various times of incubation with respect to initial amount were calculated. The half-life in plasma was also calculated.

Row | SMILES | residual percentage in rat plasma [1] [%] | IC50 [2] [nM] | residual percentage in rat S9 fraction [3] [%] | IC50 [4] [nM] | IC50 [5] [nM] | residual percentage in human S9 fraction [6] [%] | residual percentage in human plasma [7] [%]
1 | O=C(NO)c1ccc(Cn2nnnc2-c2ccc3ccccc3n2)cc1 [comp. 91, 4-[[5-(2-quinolyl)tetrazol-1-yl]methyl]benzenecarbohydroxamic acid] | 93 | 783 | 8 | 812 | 3 | – | –
2 | O=C(NO)c1cc(F)c(Cn2nnnc2-c2ccco2)c(F)c1 [comp. 92, 3,5-difluoro-4-[[5-(2-furyl)tetrazol-1-yl]methyl]benzenecarbohydroxamic acid] | 79 | > 10000 | 71 | > 10000 | 27 | – | –
3 | O=C(NO)c1cc(F)c(Cn2nnc(-c3nccc4ccccc34)n2)c(F)c1 [comp. 93, 3,5-difluoro-4-[[5-(1-isoquinolyl)tetrazol-2-yl]methyl]benzenecarbohydroxamic acid] | 10 | > 10000 | 53 | > 10000 | 22 | – | –
4 | Nc1ccc(-c2nnn(Cc3ccc(C(=O)NO)cc3)n2)cc1 [comp. 169, 4-[[5-(4-aminophenyl)tetrazol-2-yl]methyl]benzenecarbohydroxamic acid] | 68 | 271 | 44 | 24 | 1 | – | –
5 | Cn1c(Sc2c(F)cc(C(=O)NO)cc2F)nnc1C(C)(C)c1cccnc1 [comp. 186, 3,5-difluoro-4-[[4-methyl-5-[1-methyl-1-(3-pyridyl)ethyl]-1,2,4-triazol-3-yl]sulfanyl]benzenecarbohydroxamic acid] | 75 | 10400 | 9 | ≥ 100000 | 23 | – | –
6 | O=C(NO)c1ccc(Sc2nnc(-c3ccccc3)o2)cc1 [comp. 188, 4-[(5-phenyl-1,3,4-oxadiazol-2-yl)sulfanyl]benzenecarbohydroxamic acid] | 93 | – | 7 | – | 7 | 49 | 90
7 | O=C(NO)c1cc(F)c(Sc2nnc(-c3cccnc3)s2)c(F)c1 [comp. 191, 3,5-difluoro-N-hydroxy-4-((5-(pyridin-3-yl)-1,3,4-thiadiazol-2-yl)thio)benzamide] | 92 | – | 35 | – | 22 | 42 | 93
8 | O=C(NO)c1cc(F)c(Sc2nnc(-c3ccccc3)o2)c(F)c1 [comp. 192, 3,5-difluoro-4-[(5-phenyl-1,3,4-oxadiazol-2-yl)sulfanyl]benzenecarbohydroxamic acid] | 90 | – | 17 | – | 31 | 43 | 100
9 | Cn1c(Sc2c(F)cc(C(=O)NO)cc2F)nnc1-c1ccco1 [comp. 199, 3,5-difluoro-4-[[5-(2-furyl)-4-methyl-1,2,4-triazol-3-yl]sulfanyl]benzenecarbohydroxamic acid] | 92 | – | 57 | – | 6 | 75 | 90
10 | CN(C)Cc1ccc(-c2nnc(Sc3c(F)cc(C(=O)NO)cc3F)n2C)o1 [comp. 206, 4-[[5-[5-[(dimethylamino)methyl]-2-furyl]-4-methyl-1,2,4-triazol-3-yl]sulfanyl]-3,5-difluoro-benzenecarbohydroxamic acid] | 88 | – | 50 | – | 7 | 97 | 92
11 | CCN(CC)Cc1ccc(-c2nnc(Sc3c(F)cc(C(=O)NO)cc3F)n2C)o1 [comp. 211, 4-[[5-[5-(diethylaminomethyl)-2-furyl]-4-methyl-1,2,4-triazol-3-yl]sulfanyl]-3,5-difluoro-benzenecarbohydroxamic acid] | 86 | – | 67 | – | 8 | 59 | 76
12 | CN(c1ccc(-c2nnc(Sc3c(F)cc(C(=O)NO)cc3F)s2)cc1)S(C)(=O)=O [compound 187, 3,5-difluoro-4-[[5-[4-[methyl(methylsulfonyl)amino]phenyl]-1,3,4-thiadiazol-2-yl]sulfanyl]benzenecarbohydroxamic acid] | 101 | – | 17 | – | 55 | 54 | 92
13 | O=C(NO)c1ccc(Cc2noc(-c3ccnc(N4CCOCC4)c3)n2)cc1 [compound 193, 4-[[5-(2-morpholino-4-pyridyl)-1,2,4-oxadiazol-3-yl]methyl]benzenecarbohydroxamic acid] | 81 | – | 63 | – | 6 | 71 | 100
14 | O=C(NO)c1cc(F)c(Cc2noc(-c3ccccc3)n2)c(F)c1 [compound 194, 3,5-difluoro-N-hydroxy-4-((5-phenyl-1,2,4-oxadiazol-3-yl)methyl)benzamide] | 89 | – | 3 | – | 11 | 29 | 99
